Data from patent US9980967B1, “Method for overcoming drug resistance of EGFR mutation and cancerous stemness of human non-small cell lung carcinoma” (NATIONAL CHIAO TUNG UNIVERSITY, priority 2017, dated 2018).

Legend:
Assay type in all cases: cell-based, human
A549-ON cells = assay: MTT cell viability assay in A549-ON cells; details: 10~40 μM for 24 hours, concentration-dependent
Procedure: (§1) After treatment, the cells were re-cultured in fresh medium for 2 days. The cell viability was analyzed by MTT assays. The results were obtained from three independent experiments and the bar represents the mean±S.E.M. ***p<0.001 indicates significant difference between Gefitinib and SP101 treated samples.
A549 (ATCC number: CCL-185) was a non-small cell lung carcinoma cell line which expressed wild type EGFR and with K-Ras mutation (G12S). H1975 (ATCC number: CRL-5908) was a non-small cell lung carcinoma cell line which expressed EGFR L858R/T790M mutation. Oct4 and Nanog overexpression in A549-ON presented the properties of cancer stem-like cells, as well as epithelial-mesenchymal transdifferentiation. PLC26 was lung cancer cells that separated from pleural effusion of a clinical lung cancer patient (IRB number: 103-011-E). A549-ON cells were cultured in DMEM medium. A549 and H1975 cells were maintained in RPMI-1640 medium. […]
Please refer to FIG. 12. […] To compare the cell viability of SP101 and Gefitinib in K-Ras mutation-drug resistant A549 and A549-ON cell lines, the cells were treated with 0˜40 μM SP101 or Gefitinib for 24 hours, and analyzed by MTT assays. […] To determine the effect of SP101 and Gefitinib on the cell viability in cancer stem-like A549-ON cells, the cells were treated with 10˜40 μM SP101 or Gefitinib for 24 hours, and analyzed by MTT assays.

[1] = system: Oct4, Nanog and Survivin in A549-ON cells; assay: Western blot and immunofluorescence of Oct4, Nanog and Survivin in A549-ON cells
Procedure: At the end of treatment, the total protein extracts were prepared for Western blot analyses using specific antibodies, including rabbit anti-Survivin, rabbit anti-cleaved caspase 3 and mouse anti-actin. Representative immunoblotting data were shown from one of three separate experiments with similar findings. […] was an internal control protein.
(§2) FIG. 17 is a result of immunofluorescence staining and confocal microscopy. Then green color indicates the location of Oct4 excited with 488 nm and the emission and collected in 493-518 nm. The β-tubulin was stained with Cy3-labeled mouse anti-β-tubulin antibody. The fluorescence intensity of β-tubulin (red color) was excited with 543 nm and the emission was collected in range of 560-580 nm. Blue fluorescence indicates nuclei following staining with Hoechst 33258 and was excited with 405 nm and the emission was collected in 415-450 nm. Overlapping localization is shown in the merged images.
as §2, with “18” for “17”, “Survivin protein” for “Oct4”
Oct4 and Nanog have been served as markers of tumorigenesis. Furthermore, Oct4 played a pivotal role in Gefitinib resistance in lung cancer stem cells. […] Please refer to FIG. 16. […] We further investigated the expression of Oct4 and Survivin by immunofluorescence staining and confocal microscopy. Please refer to FIGS. 17 and 18. The green fluorescence (dylight 488) indicated the location of Oct4 and Survivin. The blue fluorescence (Hoechst 33258) and red (Cy3) fluorescence represent nucleus and β-tubulin, respectively. Treatment with 30 μM SP101 for 24 hours inhibited Oct4 proteins expression and induced apoptotic bodies as shown in FIG. 17; moreover, the Survivin proteins were inhibited by SP101 treatment as shown in FIG. 18.

PLC26 cells [2] = assay: MTT cell viability assay in PLC26 cells; details: 0~40 μM for 24 hours, compared with Gefitinib
Procedure: as §1, with “gefitinib” for “Gefitinib”
A549 (ATCC number: CCL-185) was a non-small cell lung carcinoma cell line which expressed wild type EGFR and with K-Ras mutation (G12S). H1975 (ATCC number: CRL-5908) was a non-small cell lung carcinoma cell line which expressed EGFR L858R/T790M mutation. Oct4 and Nanog overexpression in A549-ON presented the properties of cancer stem-like cells, as well as epithelial-mesenchymal transdifferentiation. PLC26 was lung cancer cells that separated from pleural effusion of a clinical lung cancer patient (IRB number: 103-011-E). A549-ON cells were cultured in DMEM medium. A549 and H1975 cells were maintained in RPMI-1640 medium. PLC26 cells were maintained in LHC-9 medium. […]
We have further investigated the effect of SP101 in PLC26 lung cancer cells separated from the pleural effusion of a clinical lung cancer patient. To compare the cell viability of SP101 and Gefitinib in PLC26 cells, the cells were treated with 0˜40 μM SP101 or Gefitinib for 24 hours, and analyzed by MTT assays. […] The apoptosis levels of SP101 in PLC26 cells were analyzed by Annexin V and PI staining. […]

PLC26 cells [3] = assay: Annexin V/PI apoptosis flow cytometry in PLC26 cells; details: 30 μM for 24 hours
Procedure: At the end of treatment, apoptosis was measured by Annexin V-PI staining using flow cytometry analysis. The population of Annexin V+/PI− cells represents cells undergoing early apoptosis (low right), whereas the fraction of Annexin V+/PI+ cell are those undergoing late apoptosis (upper right).
We have further investigated the effect of SP101 in PLC26 lung cancer cells separated from the pleural effusion of a clinical lung cancer patient. To compare the cell viability of SP101 and Gefitinib in PLC26 cells, the cells were treated with 0˜40 μM SP101 or Gefitinib for 24 hours, and analyzed by MTT assays. Please refer to FIG. 21. […] The apoptosis levels of SP101 in PLC26 cells were analyzed by Annexin V and PI staining. The PLC26 cells were trypsinized and then incubated with propidium iodide (5 μl) and Annexin V-FITC (5 μl) at room temperature for 5 mins before flow cytometry. Please refer to FIG. 22.

[4] = 30 μM for 24 hours, immunofluorescence and confocal microscopy
[5] = 20<30 μM for 24 hours, Western blot

`CCCCCCCCCCCCOC(=O)CCC(=O)N1CCN(CCCOc2cc3c(Nc4ccc(F)c(Cl)c4)ncnc3cc2OC)CC1` [SP101, dodecyl 4-(4-(3-(4-(3-chloro-4-fluorophenylamino)-7-methoxyquinazolin-6-yloxy)propyl)piperazin-1-yl)-4-oxobutanoate] was tested. Which cell viability (A549-ON cells) did it give?
The cell viability was “significantly reduced”.

And the Oct4 proteins expression [1, 4]?
The Oct4 proteins expression was “inhibited”.

And the Survivin proteins [1, 4]?
Its Survivin proteins is “inhibited”.

And the Nanog protein expression [1, 5]?
Its Nanog protein expression is “significantly reduced”.

And the Oct4 protein expression [1, 5]?
The Oct4 protein expression was “significantly reduced”.

What about the Survivin protein expression [1, 5] of the same molecule?
The Survivin protein expression was “significantly reduced”.

And the “reduction of cell viability” value (PLC26 cells [2])?
Its value is “more effective on the reduction of cell viability than Gefitinib”.

And the “levels of Annexin V+/PI− cells (early apoptosis) and Annexin V+/PI+ cells (late apoptosis)” value (PLC26 cells [3])?
The value was “significantly increased”.
